According to US6806230B1, “Pyrimidine derivatives and herbicides containing them” (Kumiai Chemical Industry Co., Ltd., priority 1999, dated 2004):

How the values were obtained:
Type in all cases: in vivo
barnyard grass (Ec) [1] = assay: Test Example 2: herbicidal effects by upland soil treatment; design: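 0-5 growth inhibition grade; 5 = over 90%; 4 = 70-90%; 3 = 50-70%; 2 = 30-50%; 1 = 10-30%; 0 = under 10%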; details: dose 100 g active ingredient per 10 ares, examined on the 21st day after treatment, standards of Table 44
Outline: (§1)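 Pre-emergence test: barnyard grass and green foxtail sown in upland soil, then soil surface sprayed with wettable-powder formulation at 100 g active ingredient per 10 ares (100 l per 10 ares). Grown in greenhouse; herbicidal effect scored on a rating scale 21 days after treatment.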

barnyard grass (Eo) [2] = assay: Test Example 1: herbicidal effects by flooded paddy field treatment; design: herbicidal effects, Eo (barnyard grass):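 0-5 growth inhibition grade; 5 = over 90%; 4 = 70-90%; 3 = 50-70%; 2 = 30-50%; 1 = 10-30%; 0 = under 10%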; details: for herbicidal effects, Eo (barnyard grass): dose 100 g active ingredient per 10 ares, examined on the 21st day after treatment, standards of Table 44; for Herbicidal effect index, Eo: dose 100 gai/10a, examined on 21st day after treatment, index 0-5 per Table 44;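 on Herbicidal effect index, Eo: 0-5 growth inhibition grade; 5 = over 90%; 4 = 70-90%; 3 = 50-70%; 2 = 30-50%; 1 = 10-30%; 0 = under 10%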
Outline: (§2)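 Flooded paddy pre-emergence test: sowing into puddled soil under 3 cm water, then dropwise water-surface treatment the following day with diluted wettable powder at 100 g active ingredient per 10 ares. Greenhouse cultivation followed, and weeds were rated against a standard scale at 21 days.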

barnyard grass (Ec) [3] = assay: Test Example 3: herbicidal effects by foliage treatment in upland field; design: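 0-5 growth inhibition grade; 5 = over 90%; 4 = 70-90%; 3 = 50-70%; 2 = 30-50%; 1 = 10-30%; 0 = under 10%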; details: dose 100 g active ingredient per 10 ares, examined on the 14th day after treatment
Outline: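 Barnyard grass and green foxtail were grown in upland soil for 2 weeks in a greenhouse. A water-diluted wettable powder was sprayed over the foliage at 100 l per 10 ares, giving 100 g active ingredient per 10 ares. Herbicidal effect was scored on day 14 after treatment.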

monochoria (Mo) [4] = assay: Test Example 1: herbicidal effects by flooded paddy field treatment; design: herbicidal effects, Mo (monochoria):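 0-5 growth inhibition grade; 5 = over 90%; 4 = 70-90%; 3 = 50-70%; 2 = 30-50%; 1 = 10-30%; 0 = under 10%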; details: for herbicidal effects, Mo (monochoria): dose 100 g active ingredient per 10 ares, examined on the 21st day after treatment, standards of Table 44; for Herbicidal effect index, Mo: dose 100 gai/10a, examined on 21st day after treatment, index 0-5 per Table 44;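 on Herbicidal effect index, Mo: 0-5 growth inhibition grade; 5 = over 90%; 4 = 70-90%; 3 = 50-70%; 2 = 30-50%; 1 = 10-30%; 0 = under 10%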
Outline: as §2

monochoria (Mo) [5] = assay: Test Example 4: selectivity for a crop plant by flooded paddy field treatment; design: scale not given here; details: for Mo (herbicidal effect index): monochoria, dose 25 gai/10a, 21st day after treatment, index per Table 44; for Mo (herbicidal effects, index): dose 25 g active ingredient per 10 ares, examined on the 21st day after treatment
Outline: (§3)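 Steps: fill pot with paddy soil and puddle; sow weed seeds; transplant rice at second-leaf stage; flood to 3 cm. Next day, drip the water-diluted wettable powder onto the water (25 g a.i./10 ares). Grow in greenhouse and rate herbicidal effect on day 21.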

barnyard grass (Eo) [6] = assay: as above; design: scale not given here; details: for Eo (herbicidal effect index): barnyard grass, dose 25 gai/10a, 21st day after treatment, index per Table 44; for Eo (herbicidal effects, index): dose 25 g active ingredient per 10 ares, examined on the 21st day after treatment
Outline: as §3

rice (Or) = assay: as above; design: scale not given here; details: rice transplanted at second leaf stage; for Or (herbicidal effect index on crop): dose 25 gai/10a, 21st day after treatment, index per Table 44; for Or (effect on crop plant rice, index): dose 25 g active ingredient per 10 ares, examined on the 21st day after treatment
Outline: as §3

green foxtail (Se) = assay: Test Example 2: herbicidal effects by upland soil treatment; details: dose 100 g active ingredient per 10 ares, examined on the 21st day after treatment, standards of Table 44;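 further: 0-5 growth inhibition grade; 5 = over 90%; 4 = 70-90%; 3 = 50-70%; 2 = 30-50%; 1 = 10-30%; 0 = under 10%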
Outline: as §1

Row | Or (effect on crop plant rice, index) (rice (Or)) | Compound | herbicidal effects, Ec (barnyard grass) (barnyard grass (Ec) [1]) | herbicidal effects, Eo (barnyard grass) (barnyard grass (Eo) [2]) | Ec (herbicidal effects, index) (barnyard grass (Ec) [3]) | herbicidal effects, Mo (monochoria) (monochoria (Mo) [4]) | Mo (herbicidal effect index) (monochoria (Mo) [5]) | Eo (herbicidal effect index) (barnyard grass (Eo) [6]) | Or (herbicidal effect index on crop) (rice (Or)) | herbicidal effects, Se (green foxtail) (green foxtail (Se)) | Herbicidal effect index, Eo (barnyard grass (Eo) [2]) | Herbicidal effect index, Mo (monochoria (Mo) [4]) | Mo (herbicidal effects, index) (monochoria (Mo) [5]) | Eo (herbicidal effects, index) (barnyard grass (Eo) [6])
1 | – | CN(C(=O)Cc1ccc(F)cc1)C(c1ccc(F)cc1)c1cncnc1C(F)(F)F (racemic) [1-218] | 5 | 5 | 4 | 5 | 5 | 5 | 1 | 5 | – | – | – | –
2 | – | Cc1ccc(CC(=O)N(C)C(c2ccc(F)cc2)c2cncnc2C(F)(F)F)cc1 (racemic) [1-220] | 5 | 5 | 5 | 5 | 5 | 5 | 1 | 5 | – | – | – | –
3 | 1 | CCOc1ccc(CC(=O)N(C)C(c2cncnc2C(F)(F)F)C(C)C)cc1 (racemic) [Compound 1-13] | 5 | – | 5 | – | – | – | – | 5 | 5 | 5 | 5 | 5
4 | 1 | CC(C)C(c1cncnc1C(F)(F)F)N(C)C(=O)Cc1cccc(Cl)c1 (racemic) [Compound 1-21] | 5 | – | 4 | – | – | – | – | 5 | 5 | 5 | 5 | 5
5 | 1 | CC(C)C(c1cncnc1C(F)(F)F)N(C)C(=O)Cc1ccc(Cl)cc1 (racemic) [Compound 1-22] | 5 | – | 4 | – | – | – | – | 5 | 5 | 5 | 5 | 5
6 | 1 | CCN(C(=O)Cc1ccccc1)C(c1cncnc1C(F)(F)F)C(C)C (racemic) [Compound 1-26] | 5 | – | 4 | – | – | – | – | 5 | 5 | 5 | 5 | 5
7 | – | CCN(C(=O)Cc1ccc(F)cc1)C(c1cncnc1C(F)(F)F)C(C)C (racemic) [Compound 1-27] | 5 | – | 4 | – | – | – | – | 5 | 5 | 5 | – | –
8 | 0 | CC(C)C(c1cncnc1C(F)(F)F)N(C)C(=O)Cc1ccc(Br)cc1 (racemic) [Compound 1-41] | 5 | – | 5 | – | – | – | – | 5 | 5 | 5 | 5 | 5
9 | 0 | COc1cc(CC(=O)N(C)C(c2cncnc2C(F)(F)F)C(C)C)ccc1Cl (racemic) [Compound 1-47] | 5 | – | 4 | – | – | – | – | 5 | 5 | 5 | 5 | 5
10 | – | CC(C)C(c1cncnc1C(F)(F)F)N(C)C(=O)Cc1cccc(F)c1 (racemic) [Compound 1-66] | 5 | – | 5 | – | – | – | – | 5 | 5 | 5 | – | –
11 | 1 | Cc1ncncc1C(C(C)C)N(C)C(=O)Cc1ccccc1 (racemic) [Compound 1-87] | 5 | – | 4 | – | – | – | – | 5 | 5 | 5 | 5 | 5
12 | – | Cc1ncncc1C(C(C)C)N(C)C(=O)Cc1ccc(F)cc1 (racemic) [Compound 1-88] | 5 | – | 4 | – | – | – | – | 5 | 5 | 5 | – | –
13 | – | CC(C)C(c1cncnc1C(F)(F)F)N(C)C(=O)Cc1ccc(OC(F)F)cc1 (racemic) [Compound 1-96] | 5 | – | 5 | – | – | – | – | 5 | 5 | 5 | – | –
14 | – | CCCC(c1cncnc1C(F)(F)F)N(C)C(=O)Cc1ccc(F)cc1 (racemic) [Compound 1-112] | 5 | – | 4 | – | – | – | – | 5 | 5 | 5 | – | –
15 | – | CCCC(c1cncnc1C(F)(F)F)N(C)C(=O)Cc1ccc(C)cc1 (racemic) [Compound 1-113] | 5 | – | 4 | – | 5 | 5 | 0 | 4 | 5 | 5 | – | –
16 | – | CC(C)C(c1cncnc1C(F)(F)F)N(C)C(=O)Cc1ccc(F)c(F)c1 (racemic) [Compound 1-122] | 5 | – | 4 | – | – | – | – | 5 | 5 | 5 | – | –
17 | – | CC(C)C(c1cncnc1C(F)(F)F)N(C)C(=O)COc1ccc(F)cc1 (racemic) [Compound 1-127] | 5 | – | 4 | – | – | – | – | 5 | 5 | 5 | – | –
18 | – | CC(C)C(c1cncnc1C(F)(F)F)N(C)C(=O)COc1cccc(Cl)c1 (racemic) [Compound 1-133] | 5 | 5 | 5 | 5 | 5 | 5 | 1 | 5 | – | – | – | –
19 | – | CN(C(=O)Cc1ccccc1)C(c1cncnc1C(F)(F)F)C1CCCC1 (racemic) [Compound 1-137] | 5 | 5 | 5 | 5 | 5 | 5 | 1 | 5 | – | – | – | –
20 | – | CC(C)C(c1cncnc1C(F)(F)F)N(C)C(=S)Cc1ccc(F)cc1 (racemic) [Compound 1-143] | 5 | 5 | 4 | 5 | – | – | – | 5 | – | – | – | –
21 | – | CC(C)C(c1cncnc1C(F)(F)F)N(C)C(=S)Cc1ccc(Cl)cc1 (racemic) [Compound 1-144] | 5 | 5 | 4 | 5 | 5 | 5 | 1 | 5 | – | – | – | –
22 | – | CSc1ncncc1C(C(C)C)N(C)C(=O)Cc1ccc(F)cc1 (racemic) [Compound 1-152] | 5 | 5 | 4 | 5 | 5 | 5 | 1 | 5 | – | – | – | –
23 | – | CC(C)C(c1cncnc1C(F)F)N(C)C(=O)Cc1ccc(F)cc1 (racemic) [Compound 1-164] | 5 | 5 | 4 | 5 | – | – | – | 5 | – | – | – | –
